Laboratory results reported in patent US9458102B2 (priority 2011, dated 2016).
Like-named read-outs stand apart in the source and are kept apart here.

Experiments:
[1] = target: T1, Butyrylcholinesterase purified from human blood serum (Homo sapiens, UniProt P06276); experiment: In vitro hydrolysis by serum cholinesterase (butyrylcholinesterase); assay type: in vitro ADME; conditions: 50 μM compound, 0.1M phosphate buffer pH 7.4, 37° C.; mean±SD of triplicate
T1 construct: Butyrylcholinesterase purified from human blood serum; purchased Sigma; host or cells: purified from human blood serum
Procedure: Compound 1 is rapidly hydrolyzed by butyrylcholinesterase in the bloodstream. Butyrylcholinesterase purified from human blood serum was used to test the resistance of the disclosed compounds to hydrolysis.
(§1) All enzymatic assays were performed with 50 μM compound in 0.1M phosphate buffer, pH 7.4, at 37° C. with stirring, unless otherwise noted. Butyrylcholinesterase stock solutions from human serum (Sigma, St. Louis, Mo.) were prepared at 100 U/mL in 0.1 M phosphate buffer, pH 7.4, and stored at −20° C. until use. Hydrolysis was monitored on an 8452A diode array spectrophotometer (Hewlett-Packard). Product peak wavelength absorption was immediately monitored upon addition of compound. Absorbances for complete hydrolysis were determined when there were no further detectable changes. […] All hydrolysis assays were performed in triplicate, and final rate constants are expressed as the mean±SD of the three individually determined rate constants. In some experiments with compound 1, samples were taken at the beginning and end of the assay to verify the hydrolysis product and the completion of the reaction by HPLC. These samples were compared to compounds 1 and 3 on a C18 column eluted with 0.1% TFA in water/acetonitrile. Activity of chymotrypsin (bovine, Worthington Biochemical Co., 190 μg/mL) was verified with 90 μM 4-nitrophenyl acetate in 0.1 M HEPES solution, pH 6.5, at 37° C. with stirring. Hydrolysis product was monitored at 404 nm for 10 min. Activity of proteinase K (from Engyodontium album, Sigma, 165 μg/mL) was verified with 16.5 mg/mL bovine serum albumin in 0.1 M phosphate buffer, pH 7.4, at 37° C. Samples were taken at time point increments up to 2 hours when the reaction reached completion. Samples were analyzed with 12% SDS-PAGE, stained with 0.1% Coomassie Blue.

[2] = target: T2, proteinase K (Parengyodontium album, UniProt P06873); experiment: In vitro hydrolysis by proteinase K; assay type: in vitro ADME, Engyodontium album
T2 construct: purchased Sigma
Procedure: Hydrolysis products of 4-nitrophenyl acetate and BSA were detected as positive controls.
as §1

[3] = target: T3, chymotrypsin (Bos taurus, UniProt P00766); experiment: In vitro hydrolysis by chymotrypsin; assay type: in vitro ADME
T3 construct: purchased Worthington Biochemical Co
Procedure: as §1, with “In some experiments with compound 1, samples were taken at the beginning and end of the assay to verify the hydrolysis product and the completion of the reaction by HPLC. These samples were compared to compounds 1 and 3 on a C18 column eluted with 0.1% TFA in water/acetonitrile.” left out

[4] = target: heteromeric rod CNG channels consisting of CNGA1 and CNGB1 subunits (Bos taurus, UniProt Q00194+Q28181); experiment: biochemical; assay type: cell-based; conditions: 2 mM cGMP; for Kd: Table 1, mean±SD, not corrected for ion accumulation
Procedure: Currents were elicited by a voltage step protocol from 0 to −50 to +50 mV (See FIG. 1) in the presence of 2 mM cGMP or 2 mM cGMP and compound (5 μM). Time scale is shown in the lower left-hand corner of the panel and FIG. 1, and the zero current level is indicated by the dotted line.
The solid line indicates the fit of the equation for block at a single binding site.
Time scale is shown in the lower left-hand corner of the panel and FIG. 1, and the zero current level is indicated by the dotted line. […] Solid line indicates the fit of the equation for block at a single binding site.
The effectiveness of retinal rod CNG channel current block by the disclosed compounds was tested in Xenopus oocyte preparations. Excised, inside-out patches pulled from oocytes expressed heteromeric rod CNG channels consisting of CNGA1 and CNGB1 subunits. […] CNG channel currents were elicited by a voltage step protocol to −50 and +50 mV (FIG. 1). The apparent KD value at each membrane potential was estimated first by determining I+B and I−B at steady state, where I+B is the current in the presence of blocker and I−B is current in the absence of blocker, for different blocker concentrations ([B]).
Ovaries were surgically removed from adult Xenopus laevis females (Xenopus Express; Brooksville, Fla.) anesthetized with ice-cold 0.1% tricaine and 0.1% NaHCO3 solution. Oocytes were chemically released from ovarian follicles in Ca^2+-free Barth's solution (88 mM NaCl, 1 mM KCl, 2.4 mM NaHCO3, 0.82 mM MgSO4, 7.5 mM Tris, 2.5 mM sodium pyruvate, 100 U/mL penicillin, and 100 μg/mL streptomycin, pH 7.4) containing 0.1 U/mL Liberase Blendzymes (Roche, Indianapolis, Ind.). Stages IV and V oocytes were visually sorted and stored in ND-96 (96 mM NaCl, 2 mM KCl, 1.8 mM CaCl2, 1 mM MgCl2, 5 mM HEPES, 2.5 mM sodium pyruvate, 100 U/mL penicillin, and 100 μg/mL streptomycin, pH 7.4) at 16° C. Oocytes were co-injected the following day with 33 ng of CNGA1 and 67 ng of CNGB1 cRNA […] synthesized from linearized pGEM-HE expression vectors containing the channel subunit cDNA sequence (Strassmaier T & Karpen J, J Med Chem 50, 4186-4194, (2007), incorporated by reference herein) using T7 mMESSAGE mMACHINE® (Ambion, Austin, Tex.). Injected oocytes were incubated at 18° C. the first day and 16° C. for the remaining days.
Recordings from inside-out excised patches were made 3-7 days after oocyte injection on an Axopatch 1D® amplifier (Axon Instruments, Foster City, Calif.). Briefly, oocyte vitelline membranes were removed in solution containing 200 mM K aspartate, 20 mM KCl, 1 mM MgCl2, 10 mM EGTA, 10 mM HEPES, pH 7.4. Oocytes were placed in a recording chamber in a solution containing 130 mM NaCl, 2 mM HEPES, 0.02 mM EDTA, 1 mM EGTA, pH 7.6, and borosilicate glass electrodes (1-3 MΩ) were filled with identical solution. Macroscopic currents were filtered at 1 kHz and sampled at 2 kHz using pCLAMP 8.0® software (Axon Instruments). Channels were either fully activated with 2 mM or partially activated with 50 and 100 μM cGMP. […] Glass syringes and Teflon tubing were used to minimize the binding of compounds to surfaces; concentrations passing through the perfusion system were verified by absorbance.

heteromeric rod CNG channels consisting of CNGA1 and CNGB1 subunits, sequence (Q00194 whole entry): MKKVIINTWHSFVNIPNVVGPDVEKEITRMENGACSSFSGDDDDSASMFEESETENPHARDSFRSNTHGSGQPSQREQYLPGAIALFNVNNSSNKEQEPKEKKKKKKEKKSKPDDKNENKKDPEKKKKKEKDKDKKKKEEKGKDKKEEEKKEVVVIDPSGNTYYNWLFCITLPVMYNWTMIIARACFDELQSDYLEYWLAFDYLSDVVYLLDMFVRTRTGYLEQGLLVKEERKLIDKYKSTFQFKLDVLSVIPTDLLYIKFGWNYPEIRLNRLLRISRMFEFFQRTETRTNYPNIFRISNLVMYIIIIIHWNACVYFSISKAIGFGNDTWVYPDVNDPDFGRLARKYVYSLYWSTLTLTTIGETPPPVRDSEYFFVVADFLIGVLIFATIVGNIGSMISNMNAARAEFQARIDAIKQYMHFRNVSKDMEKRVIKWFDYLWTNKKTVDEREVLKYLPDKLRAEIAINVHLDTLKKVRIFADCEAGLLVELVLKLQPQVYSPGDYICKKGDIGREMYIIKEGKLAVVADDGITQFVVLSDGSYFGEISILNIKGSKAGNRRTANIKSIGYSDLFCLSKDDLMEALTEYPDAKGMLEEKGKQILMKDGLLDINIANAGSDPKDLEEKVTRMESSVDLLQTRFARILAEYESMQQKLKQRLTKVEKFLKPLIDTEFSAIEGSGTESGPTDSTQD
heteromeric rod CNG channels consisting of CNGA1 and CNGB1 subunits, sequence (Q28181 whole entry): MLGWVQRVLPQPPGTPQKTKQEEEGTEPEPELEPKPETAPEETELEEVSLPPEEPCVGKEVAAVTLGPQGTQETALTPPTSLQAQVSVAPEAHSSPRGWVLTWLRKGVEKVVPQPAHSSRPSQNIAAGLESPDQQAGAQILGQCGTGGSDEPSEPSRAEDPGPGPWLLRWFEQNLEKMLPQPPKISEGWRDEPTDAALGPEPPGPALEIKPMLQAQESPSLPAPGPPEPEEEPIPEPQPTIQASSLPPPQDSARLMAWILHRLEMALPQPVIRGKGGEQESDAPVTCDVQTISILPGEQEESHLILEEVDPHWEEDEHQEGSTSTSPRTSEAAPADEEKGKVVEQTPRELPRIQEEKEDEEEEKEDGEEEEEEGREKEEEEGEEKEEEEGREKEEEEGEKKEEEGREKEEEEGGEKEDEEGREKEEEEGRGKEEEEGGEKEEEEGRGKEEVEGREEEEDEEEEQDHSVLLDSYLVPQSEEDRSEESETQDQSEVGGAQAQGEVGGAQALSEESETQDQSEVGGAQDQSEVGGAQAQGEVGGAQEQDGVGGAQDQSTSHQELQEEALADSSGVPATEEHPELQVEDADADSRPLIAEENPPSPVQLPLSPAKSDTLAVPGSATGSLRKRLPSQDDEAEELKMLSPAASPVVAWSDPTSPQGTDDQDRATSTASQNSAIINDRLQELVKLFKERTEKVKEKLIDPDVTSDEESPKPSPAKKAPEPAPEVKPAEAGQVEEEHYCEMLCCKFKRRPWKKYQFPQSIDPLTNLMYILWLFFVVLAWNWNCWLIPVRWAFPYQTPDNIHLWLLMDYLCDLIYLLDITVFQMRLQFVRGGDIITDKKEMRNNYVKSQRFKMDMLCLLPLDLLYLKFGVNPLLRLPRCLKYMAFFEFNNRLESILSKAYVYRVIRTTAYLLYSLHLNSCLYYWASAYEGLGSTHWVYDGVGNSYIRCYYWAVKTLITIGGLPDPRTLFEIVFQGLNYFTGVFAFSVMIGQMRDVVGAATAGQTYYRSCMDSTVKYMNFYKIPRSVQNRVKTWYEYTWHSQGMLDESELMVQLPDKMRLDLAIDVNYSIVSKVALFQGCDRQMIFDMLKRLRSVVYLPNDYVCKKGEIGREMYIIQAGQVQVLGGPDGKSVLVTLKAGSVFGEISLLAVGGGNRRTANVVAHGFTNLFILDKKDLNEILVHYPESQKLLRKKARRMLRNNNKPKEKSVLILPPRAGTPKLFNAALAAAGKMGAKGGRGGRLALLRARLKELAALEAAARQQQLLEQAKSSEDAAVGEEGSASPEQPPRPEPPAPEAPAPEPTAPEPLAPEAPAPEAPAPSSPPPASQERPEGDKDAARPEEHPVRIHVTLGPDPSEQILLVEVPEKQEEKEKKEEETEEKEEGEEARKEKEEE
T1 sequence (P06276 29-602): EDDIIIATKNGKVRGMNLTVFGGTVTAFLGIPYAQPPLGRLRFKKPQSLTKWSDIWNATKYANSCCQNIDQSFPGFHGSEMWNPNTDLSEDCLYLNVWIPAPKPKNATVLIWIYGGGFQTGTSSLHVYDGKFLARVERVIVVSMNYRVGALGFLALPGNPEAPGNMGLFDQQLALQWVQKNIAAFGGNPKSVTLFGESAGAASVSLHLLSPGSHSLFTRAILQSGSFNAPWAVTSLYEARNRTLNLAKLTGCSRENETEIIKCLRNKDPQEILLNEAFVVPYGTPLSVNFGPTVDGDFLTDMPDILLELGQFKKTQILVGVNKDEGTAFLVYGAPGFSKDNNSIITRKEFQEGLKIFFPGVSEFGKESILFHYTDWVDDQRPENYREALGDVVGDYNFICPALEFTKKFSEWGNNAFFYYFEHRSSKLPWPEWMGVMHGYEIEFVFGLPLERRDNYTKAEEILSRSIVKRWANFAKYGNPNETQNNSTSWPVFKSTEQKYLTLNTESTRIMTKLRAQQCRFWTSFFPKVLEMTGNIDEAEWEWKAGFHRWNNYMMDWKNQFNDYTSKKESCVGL
T2 sequence (P06873 106-384): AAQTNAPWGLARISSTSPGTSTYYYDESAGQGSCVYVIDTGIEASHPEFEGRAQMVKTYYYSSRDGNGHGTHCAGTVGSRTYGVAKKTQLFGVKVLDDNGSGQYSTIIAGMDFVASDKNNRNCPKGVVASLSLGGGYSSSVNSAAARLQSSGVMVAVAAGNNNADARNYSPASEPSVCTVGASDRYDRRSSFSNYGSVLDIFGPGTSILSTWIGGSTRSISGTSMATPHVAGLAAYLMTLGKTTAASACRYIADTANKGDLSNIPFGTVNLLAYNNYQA

SMILES | Hydrolysis rate [1] | hydrolysis products with proteinase K [2] | hydrolysis products with chymotrypsin [3] | Kd ([4]; +50 mV, read-out: KD(+50)) | Kd ([4]; −50 mV, read-out: KD(−50)) | voltage dependence of block ([4]; +50 vs −50 mV)
CCCCNc1ccc(C(=O)NCCN(C)C)cc1 [Compound 6, 4-(Butylamino)-N-(2-(dimethylamino)ethyl)benzamide] | 8.4 ± 3.5 nmol/min/mg | not able to generate any detectable hydrolysis products | not able to generate any detectable hydrolysis products | 4.4 ± 2 µM | 28.6 ± 13.1 µM | 
CCCCCCCCNc1ccc(C(=O)NCCN(C)C)cc1 [Compound 7, 4-(Octylamino)-N-(2-(dimethylamino)ethyl)benzamide] | 1.2 ± 0.5 nmol/min/mg | not able to generate any detectable hydrolysis products | not able to generate any detectable hydrolysis products |  |  | appreciably less voltage dependent than compound 1, 6, and 8
